From patent US8097656B2, “Nitrogenated trans-stilbene analogs, method for the obtention and medical applications thereof” (Dominion Pharmakine S.L, priority 2005, dated 2012)
Entries after “also recorded” stand apart in the source; their conditions may differ.

Key:
HSE cells [1] = assay: Hydrogen peroxide production from primary cultured HSE cells (DCFH-DA probe); type: cell-based, mouse; conditions: 2.5 μM
Source text: (§1) Isolation of primary murine cultures of hepatic sinusoidal endothelial (HSE) cells. The hepatic sinusoidal cells were isolated from C57BL/6J mice (males, aged 6-8 weeks) supplied by IFFA Credo (L'Arbreole, France), followed by a purification and identification of the HSE cells following the protocol described by Vidal-Vanaclocha et al. (1993) [Vidal-Vanaclocha, F., Rocha, M., Asumendi, A. & Barbera-Guillem, E. Isolation and enrichment of two sublobular compartment-specific endothelial cell subpopulations from liver sinusoids. Hepatology, 1993, 18, 328-339]. Stable primary cultures of HSE cells were obtained after seeding the cells on a type I collagen substrate (Sigma Chemicals Co, St Louis, Mo.), and the cultures were maintained in DMEM-HCO^3−, penicillin (100 U/ml), streptomycin (100 μg/ml), supplemented with 10% fetal bovine serum at 37° C. with 5% CO2 in atmosphere at 98% humidity.
(§2) Determination of hydrogen peroxide production from HSE and MB16 cells. Primary cultures of HSE cells were treated with 10 μg/ml of the DCFH-DA fluorescent probe for 30 minutes at 37° C. and were washed to eliminate the excess fluorochromium. Afterward, fresh culture medium was added thereto in the presence or absence of 2.5 μM of the compounds JE1:2, JE2:1 or JE2:2 and the production of H202 over the course of time was determined (see FIG. 5). The hydrogen peroxide produced by the cells oxidizes the probe, converting it into a fluorescent molecule. Thus, the cell fluorescence produced by the accumulation of DCF made it possible to detect the intracellular production of hydrogen peroxide. In each cell well, it was possible to determine the relative fluorescence value (arbitrary units of fluorescence brightness) in relation to the quantity of hydrogen peroxide produced at different incubation times. In the experiments with MB16 cells, once the cells had been marked with the DCFH-DA probe, they were incubated for 300 minutes with 2.5 μM of the azaresveratrol or JE2:2 compounds, 10 ng/ml of IL-18 (FIG. 4) then having been added.

MB16 cells [2] = assay: MB16 cell adhesion to immobilized VCAM-1 substrates (H2O2-treated); type: cell-based, murine; conditions: 2.5 μM preincubation; 10 μM H2O2
Experimental: MB16 and MA375 cell adhesion to immobilized VCAM-1 substrates. The MB16 and MA375 cell adhesion tests were conducted on immobilized VCAM-1 substrates (2 μg/ml of recombinant human VCAM-1, R&D Systems, Minneapolis, Minn.) on 96-well plates. To avoid non-specific attachment to the plastic, 0.5% BSA dissolved in PBS was added to the wells for 2 hours at ambient temperature prior to conducting the adhesion test. The melanoma cells were preincubated with 2.5 μM of the compounds to be tested (azaresveratrol, see Table 2; JE1:2, JE2:1 and JE2:2 see FIG. 2; JEM2:2-01 and JEM2:1-02 see FIG. 7; YEF02, YEF03, YEF07, YEF05B, YEF07B and YEF05H. see FIG. 9) for 30 minutes, to which 10 μM of hydrogen peroxide or 10 ng/ml of IL-18 were added, respectively for a further 24 hours. Afterward, the cells were washed and marked with the BCECF-AM fluorescent probe (carboxyfluorescein, 2′,7′-bis-(2-carboxy-ethyl)-5-(6)carboxyfluorescein aminoxymethyl ester). Thirty minutes later, a washing process was performed to remove the excess fluorochromium, the number of viable cells being calculated by means of the trypan blue exclusion test and (5×10^4 cells/well) being added to the 96-well plate. The co-culture plates were incubator-incubated at 37° C. for 1 hours. The percentage of cellular adhesion was calculated by measuring the fluorescence emitted by the adhered cells (obtained after washing the plate) with regard to the fluorescence emitted by the total number of cells added. The results in the figures are given in values related to the adhesion percentages of the untreated melanoma cells.

MB16 cells [3] = assay: In vitro proliferation of MB16 cells treated with recombinant IL-18; type: cell-based, murine; conditions: 2.5 μM pretreatment; 10 ng/ml IL-18; 48 h
Experimental: In vitro Melanoma cell proliferation test. The MB16 or MA375 cells are seeded (2500 cells/well/200 μl) in DMEM medium (Dulbecco's modified Eagle's medium) with 10% fetal bovine serum (FBS). Once adhered, they were washed to remove the FBS and fresh medium was added in the presence or absence of 2.5 μM of the compounds to be tested. In the experiments with MA375, the compound azaresveratrol (see Table 4) was used, and in the experiments with MB16 cells, the compounds azaresveratrol, JE1:2, JE2:1 or JE2:2 (see FIG. 3) were used. Thirty (30) minutes later, 10 ng/ml of IL-18 or HSC-conditioned media (murines in the case of B16 and human ones in the case of A375) were added to some wells, and the plates were incubated for 48 hours at 37° C. with 5% CO2 Upon completion of the incubation period, the cells were fixed with […] for 1 hours, were washed and were allowed to dry in the incubator at 50° C. for 30 minutes. In following, 100 μl/well of sulforhodamine 101 (0.4% p/v) was added and they were incubated at room temperature in the dark for 30 minutes. After washing, 200 μl/well of Tris base 10 mM pH 10.5 was added and the fluorescence was measured by means of a 530 nm, 620 nm emission excitation filter plate fluorescence reader. The number of cells was calculated by extrapolating said fluorescence data on a standard straight line previously obtained based on the fluorescence emitted in an increasing number of cells.

MB16 cells [4] = assay: Hydrogen peroxide production from MB16 cells (DCFH-DA probe); type: cell-based, murine
Experimental: as §2

PGE2 = assay: EIA of PGE2 in supernatant of VEGF-treated HSE cells (evidence of cyclooxygenase-2 activity); type: cell-based, mouse; conditions: 1, 2.5 and 10 μM; 10 ng/ml VEGF for 4 hours
Experimental: PGE2 determination in HSE cell supernatants (see FIG. 11). Primary cultured HSE cells were incubated in the presence or absence of increasing concentrations (1, 2.5 and 10 μM) of the compounds JE2:2, YEF07 and YEF05B for 30 minutes. In following, 10 ng/ml of recombinant murine VEGF or the same volume of saline solution was added, 4 hours after which supernatants were collected and the PGE2 concentration determined by enzymatic immunoassay (EIA) supplied by Amersham Biosciences (Uppsala, Sweden).

MB16 cells [5] = assay: MB16 hepatic metastasis test after intrasplenic injection; type: in vivo, C57BL/6J mice; conditions: JE2:2 intraperitoneal 2.5 mg/kg, 1 hour prior and days 2, 3, 4, 8, 9, 10, 11; day 12; vs PBS; P<0.01
[6] = Water solubility (statement); type: physicochemical
HSE cells [7] = assay: MB16 cell adhesion to HSE cells treated with MC-MB16; type: cell-based, mouse; conditions: 2.5 μM prior to MC-MB16
Source text: as §1
MB16 cell adhesion to the monolayer of HSE cells in culture. The endothelial cells were isolated 24 hours prior to the adhesion test and were seeded on 24-well plate, maintaining them a minimum of 4 hours in serum-free medium before incubating them with DMEM in the presence or not of MC-MB16 for 8 hours. The synthesized compounds (JE2:2 see FIG. 6; JEM2:2-01 and JEM2:1-02 see FIG. 8A; YEF02, YEF03, YEF07, YEF05B, YEF07B and YEF05H see FIG. 10) were added to a 2.5 μM concentration prior to the MC-MB16. On the other hand, the MB16 cells were marked with 40 μg/ml from the fluorescent probe BCECF-AM (carboxyfluorescein, 2′,7′-bis-(2-carboxy-ethyl)-5-(6)carboxyfluorescein aminoxymethyl ester) supplied by Molecular Probes Inc. (Oregon, USA). Afterward, a washing process was performed with DMEM-HCO3−—to remove the excess fluorochromium, the number of viable cells being calculated by means of the trypan blue exclusion test and resuspended to a concentration of 2×10^5 cells/ml. Lastly, 1 ml of the MB16 cell suspension was added to each well on the primary HSE cell culture plate. The co-culture plates were incubator-incubated at 37° C. for 8 minutes. The percentage of cellular adhesion was calculated by means of the a fluorescence measurement system described by Vidal-Vanaclocha et al. (1994) [Vidal-Vanaclocha, F., Amézaga, C., Asumendi, A., Kaplanski, G. & Dinarello, C. A. Interleukin-1 receptor blockade reduces the number and size of murine B16 melanoma hepatic metastases. Cancer Research, 1994, 54, 2667-2672]. In the experiments with IL-18, the MB16 cells were incubated with 10 ng/ml of IL-18 for 4 hours prior to being marked with BCECF-AM and were adhered to the HSE cell plate. The results in the figures are given as values related to the adhesion percentages of the untreated HSE cells.

TNF-alpha = assay: ELISA of TNF-alpha in supernatant of MC-MB16-treated HSE cells; type: cell-based, mouse; conditions: 2.5 μM for 30 minutes before MC-MB16; 8 hours
Experimental: ELISA determination of the TNF-alpha concentration in the supernatant from MC-MB16-treated HSE cells. Primary cultured HSE cells were incubated in the presence or absence of 2.5 μM of the synthesized compounds (JEM2:2-01 and JEM2:1-02 see FIG. 8B) for 30 minutes, after which MB16-conditioned media were added. Eight (8) hours later, the supernatant from cultured endothelial cells were collected, filtered through 0.22 μm membranes and the concentration of TNF-alpha was then assayed using the ELISA test (R&D Systems).

| Compound | Endothelial (HSE) production of H2O2 (in words) (HSE cells [1]) | Increase in H2O2-treated MB16 cell adhesion to immobilized VCAM-1 (in words) (MB16 cells [2]) | Increase in the number of MB16 cells by IL-18 (proliferation, in words) (MB16 cells [3]) | Increase in endothelial secretion of PGE2 after VEGF (in words) (PGE2) | Increase in adhesion of MB16 cells to HSE activated by MC-MB16 / proadhesive response of HSE (in words) (HSE cells [7]) | other results |
| --- | --- | --- | --- | --- | --- | --- |
| COC(=O)c1[nH]c(-c2ccc(O)cc2)cc1-c1cc(O)cc(O)c1 [JE1:2, 3-(3,5-Dihydroxyphenyl)-5-(4-hydroxyphenyl)-1H-pyrrole-2-methyl carboxylate] | inhibitory effect | significantly (P<0.01) inhibits | reduced said increase | – | – | – |
| COC(=O)c1[nH]c(-c2cc(O)cc(O)c2)cc1-c1ccc(O)cc1 [JE2:1, 5-(3,5-Dihydroxyphenyl)-3-(4-hydroxyphenyl)-1H-pyrrole-2-methyl carboxylate] | inhibitory effect | significantly (P<0.01) inhibits | reduced said increase | – | – | – |
| COC(=O)c1[nH]c(-c2cc(O)cc(O)c2)cc1-c1cc(O)cc(O)c1 [JE2:2, 3,5-bis(3,5-Dihydroxyphenyl)-1H-pyrrole-2-methyl carboxylate] | inhibited | significantly (P<0.01) inhibits; also recorded: greatest inhibitory effect | reduced said increase; also recorded: most highly effective | significantly inhibited; also recorded: dose-response | significantly (P<0.01) reduced | Increase of H2O2 production of MB16 cells in response to IL-18 (in words) (MB16 cells [4]; 2.5 μM prior to IL-18): completely abrogated; H2O2 production of MB16 cells in basal conditions (in words) (MB16 cells [4]; 2.5 μM, no IL-18): inhibited; Reduction of the mean density of hepatic metastasis (MB16 cells [5]): 87%; Reduction of the volume occupied by metastatic tissue (MB16 cells [5]): 90%; Water solubility (in words) [6]: highly water-soluble |
| COC(=O)c1[nH]c(-c2cc(OC)cc(OC)c2)cc1-c1cc(OC)cc(OC)c1 [JEM2:2-01, 3,5-bis(3,5-Dimethoxyphenyl)-1H-pyrrole-2-methyl carboxylate] | – | completely abrogated | – | – | significantly (P<0.01) reduced; also recorded: greater inhibition | Endothelial production of TNF-alpha induced by MC-MB16 (in words) (TNF-alpha): inhibits |
| COc1cc(OC)cc(-c2cc3c(OC)cc(OC)cc3n2C(=O)OC(C)(C)C)c1 [YEF05B, 4,6-Dimethoxy-2-(3,5-dimethoxyphenyl)-1H-indole-1-tert-butyl carboxylate] | – | significantly (P<0.01) inhibited | – | significantly inhibited | significantly (P<0.01) reduced | – |
| Oc1ccc(O)c(-c2cc3c(O)cc(O)cc3[nH]2)c1 [YEF05H, 2-(2,5-Dihydroxyphenyl)-1H-indole-4,6-diol] | – | significantly (P<0.01) inhibited | – | – | significantly (P<0.01) reduced | – |
| COc1cc(OC)cc(-c2cc3c(OC)cc(OC)cc3[nH]2)c1 [YEF07, 4,6-Dimethoxy-2-(3,5-dimethoxyphenyl)-1H-indole] | – | significantly (P<0.01) inhibited | – | significantly inhibited | significantly (P<0.01) reduced | – |
| COc1ccc(OC)c(-c2cc3c(OC)cc(OC)cc3n2C(=O)OC(C)(C)C)c1 [YEF07B, 4,6-Dimethoxy-2-(2,5-dimethoxyphenyl)-1H-indole-1-tert-butyl carboxylate] | – | significantly (P<0.01) inhibited | – | – | significantly (P<0.01) reduced | – |
